Measurements reported in ChEMBL document CHEMBL3817799, “N-Nitrosulfonamides: A new chemotype for carbonic anhydrase inhibition” (Bioorg Med Chem, 2016).
pKi: −log10 of the molar value.

Legend:
[1] = molecular target: Carbonic anhydrase 2 (Homo sapiens, UniProt P00918); assay: Inhibition of human recombinant carbonic anhydrase 2 preincubated for 15 mins prior to testing by stopped flow CO2 hydrase assay
[2] = Inhibition of Malassezia globosa beta carbonic anhydrase preincubated for 15 mins prior to testing by stopped flow CO2 hydrase assay
[3] = test system: Malassezia globosa; assay: Potency index, ratio of acetazolamide Ki to compound Ki for Malassezia globosa beta carbonic anhydrase
[4] = molecular target: Carbonic anhydrase 9 (Homo sapiens, UniProt Q16790); assay: Inhibition of human recombinant carbonic anhydrase 9 preincubated for 15 mins prior to testing by stopped flow CO2 hydrase assay

Structure (SMILES)	pKi [1]	pKi [2]	Ratio Ki [3]	pKi [4]
CN(C)c1ccc(S(=O)(=O)N[N+](=O)[O-])cc1	< 4.30	6.66	10	–
N#CCNc1ccc(S(=O)(=O)N[N+](=O)[O-])cc1	5.87	5.46	10	5.70
Nc1cccc(S(=O)(=O)N[N+](=O)[O-])c1	5.29	5.56	10	< 4.30
NCc1ccc(S(=O)(=O)N[N+](=O)[O-])cc1	–	5.09	–	5.22
CC(=O)Nc1nnc(S(N)(=O)=O)s1 [ACETAZOLAMIDE]	–	4.13	–	–
Nc1nnc(S(=O)(=O)N[N+](=O)[O-])s1	5.34	5.35	10	6.08
